Organism: Rattus norvegicus
Assay: Open TG-GATES - Regimen: Daily Repeat
Format: toxicity, organism-based, Sprague-Dawley
Parameters: regimen Daily Repeat, gender Male, age 6 weeks
Conditions: in vivo, po, 0 mg/kg, route gavage, dose level Control; for APTT / Bas / Eos / Fbg / Hb / Ht / Lym / MCH / MCHC / MCV / Mono / Neu / PT / Plat / RBC / Ret / WBC: tissue Blood; for KIDNEY_L / KIDNEY_R / KIDNEY_TOTAL: tissue Kidney; for LIVER: tissue Liver; for A/G / ALP / ALT / AST / BUN / CRE / Ca / Cl / DBIL / GLC / IP / K / LDH / Na / PL / RALB / TBIL / TC / TG / TP / gamma-GTP: tissue Plasma

`Nc1ccc(Cc2ccc(N)cc2)cc1` showed a TERMINAL_BW (72 h, time 3 day) of 240.9 g, an APTT (72 h, time 3 day) of 13.2 s and a Bas (72 h, time 3 day) of 0%. The Eos (72 h, time 3 day) was 1%, the Fbg (72 h, time 3 day) was 284.6 mg/dL and the Hb (72 h, time 3 day) was 13.1 g/dL. For the same compound, the Ht (72 h, time 3 day) was 38.4%, the Lym (72 h, time 3 day) was 75% and the MCH (72 h, time 3 day) was 21.1 pg. The MCHC (72 h, time 3 day) was 34%, the MCV (72 h, time 3 day) was 62.1 fL and the Mono (72 h, time 3 day) was 2.8%. It also gave a Neu (72 h, time 3 day) of 20.2%, a PT (72 h, time 3 day) of 11.7 s and a Plat (72 h, time 3 day) of 134 x10_4/uL. For the same compound, the RBC (72 h, time 3 day) was 618.2 x10_4/ul, the Ret (72 h, time 3 day) was 6.4% and the WBC (72 h, time 3 day) was 93.3 x10_2/uL. For the same compound, the KIDNEY_L (72 h, time 3 day) was 1 g, the KIDNEY_R (72 h, time 3 day) was 1 g and the KIDNEY_TOTAL (72 h, time 3 day) was 2 g. The LIVER (72 h, time 3 day) was 11.1 g, the A/G (72 h, time 3 day) was 0.8 and the ALP (72 h, time 3 day) was 1856.4 IU/L. It also gave an ALT (72 h, time 3 day) of 42 IU/L, an AST (72 h, time 3 day) of 71.6 IU/L and a BUN (72 h, time 3 day) of 15.2 mg/dL. The CRE (72 h, time 3 day) was 0.2 mg/dL, the Ca (72 h, time 3 day) was 11 mg/dL and the Cl (72 h, time 3 day) was 105.4 meq/L. For the same compound, the DBIL (72 h, time 3 day) was 0.018 mg/dL, the GLC (72 h, time 3 day) was 177.2 mg/dL and the IP (72 h, time 3 day) was 7.6 mg/dL. It also gave a K (72 h, time 3 day) of 4 meq/L, an LDH (72 h, time 3 day) of 76.6 IU/L and a Na (72 h, time 3 day) of 142.8 meq/L. The PL (72 h, time 3 day) was 139 mg/dL, the RALB (72 h, time 3 day) was 2.6 g/dL and the TBIL (72 h, time 3 day) was 0.038 mg/dL. It also gave a TC (72 h, time 3 day) of 75 mg/dL, a TG (72 h, time 3 day) of 108.2 mg/dL and a TP (72 h, time 3 day) of 5.8 g/dL. The gamma-GTP (72 h, time 3 day) was 1 IU/L, the TERMINAL_BW ([…], time 7 day) was 282.7 g and the TERMINAL_BW ([…], time 14 day) was 342.6 g. For the same compound, the TERMINAL_BW ([…], time 28 day) was 438.3 g, the APTT ([…], time 7 day) was 15.2 s and the Bas ([…], time 7 day) was 0.2%. It also gave an Eos ([…], time 7 day) of 0.8%, a Fbg ([…], time 7 day) of 277.4 mg/dL and a Hb ([…], time 7 day) of 13.6 g/dL. It also gave a Ht ([…], time 7 day) of 39.5%, a Lym ([…], time 7 day) of 75.4% and an MCH ([…], time 7 day) of 20.9 pg. For the same compound, the MCHC ([…], time 7 day) was 34.5%, the MCV ([…], time 7 day) was 60.7 fL and the Mono ([…], time 7 day) was 2.2%. The Neu ([…], time 7 day) was 20.4%, the PT ([…], time 7 day) was 11.4 s and the Plat ([…], time 7 day) was 137.3 x10_4/uL. The RBC ([…], time 7 day) was 650.6 x10_4/ul, the Ret ([…], time 7 day) was 5.3% and the WBC ([…], time 7 day) was 99.1 x10_2/uL. The APTT ([…], time 14 day) was 14.9 s, the Bas ([…], time 14 day) was 0.2% and the Eos ([…], time 14 day) was 1%. The Fbg ([…], time 14 day) was 273 mg/dL, the Hb ([…], time 14 day) was 13.4 g/dL and the Ht ([…], time 14 day) was 39%. For the same compound, the Lym ([…], time 14 day) was 73.8%, the MCH ([…], time 14 day) was 20.2 pg and the MCHC ([…], time 14 day) was 34.1%. The MCV ([…], time 14 day) was 59.3 fL, the Mono ([…], time 14 day) was 2.2% and the Neu ([…], time 14 day) was 22.6%. It also gave a PT ([…], time 14 day) of 11.2 s, a Plat ([…], time 14 day) of 158.2 x10_4/uL and an RBC ([…], time 14 day) of 661.2 x10_4/ul. For the same compound, the Ret ([…], time 14 day) was 7.2%, the WBC ([…], time 14 day) was 97.7 x10_2/uL and the APTT ([…], time 28 day) was 17.5 s. The Bas ([…], time 28 day) was 0.4%, the Eos ([…], time 28 day) was 0.8% and the Fbg ([…], time 28 day) was 284.2 mg/dL. For the same compound, the Hb ([…], time 28 day) was 14.9 g/dL, the Ht ([…], time 28 day) was 42.2% and the Lym ([…], time 28 day) was 78%. The MCH ([…], time 28 day) was 20.2 pg, the MCHC ([…], time 28 day) was 35.3% and the MCV ([…], time 28 day) was 57.2 fL. The Mono ([…], time 28 day) was 2%, the Neu ([…], time 28 day) was 17.6% and the PT ([…], time 28 day) was 11.9 s. For the same compound, the Plat ([…], time 28 day) was 120.3 x10_4/uL, the RBC ([…], time 28 day) was 738.4 x10_4/ul and the Ret ([…], time 28 day) was 2.2%. It also gave a WBC ([…], time 28 day) of 122.3 x10_2/uL, a KIDNEY_L ([…], time 7 day) of 1.2 g and a KIDNEY_R ([…], time 7 day) of 1.1 g. The KIDNEY_TOTAL ([…], time 7 day) was 2.3 g, the KIDNEY_L ([…], time 14 day) was 1.3 g and the KIDNEY_R ([…], time 14 day) was 1.2 g. It also gave a KIDNEY_TOTAL ([…], time 14 day) of 2.5 g, a KIDNEY_L ([…], time 28 day) of 1.5 g and a KIDNEY_R ([…], time 28 day) of 1.4 g. It also gave a KIDNEY_TOTAL ([…], time 28 day) of 2.9 g, an LIVER ([…], time 7 day) of 12.4 g and an LIVER ([…], time 14 day) of 14.8 g. It also gave an LIVER ([…], time 28 day) of 17.8 g, an A/G ([…], time 7 day) of 0.9 and an ALP ([…], time 7 day) of 1837.2 IU/L. For the same compound, the ALT ([…], time 7 day) was 37 IU/L, the AST ([…], time 7 day) was 63.8 IU/L and the BUN ([…], time 7 day) was 17 mg/dL. The CRE ([…], time 7 day) was 0.2 mg/dL, the Ca ([…], time 7 day) was 11 mg/dL and the Cl ([…], time 7 day) was 106 meq/L. For the same compound, the DBIL ([…], time 7 day) was 0.022 mg/dL, the GLC ([…], time 7 day) was 177.6 mg/dL and the IP ([…], time 7 day) was 6.8 mg/dL. It also gave a K ([…], time 7 day) of 4.1 meq/L, an LDH ([…], time 7 day) of 65.6 IU/L and a Na ([…], time 7 day) of 143.2 meq/L. For the same compound, the PL ([…], time 7 day) was 138.6 mg/dL, the RALB ([…], time 7 day) was 2.7 g/dL and the TBIL ([…], time 7 day) was 0.066 mg/dL. For the same compound, the TC ([…], time 7 day) was 70.6 mg/dL, the TG ([…], time 7 day) was 106 mg/dL and the TP ([…], time 7 day) was 5.8 g/dL. For the same compound, the gamma-GTP ([…], time 7 day) was 1 IU/L, the A/G ([…], time 14 day) was 0.8 and the ALP ([…], time 14 day) was 1483.2 IU/L. The ALT ([…], time 14 day) was 36.6 IU/L, the AST ([…], time 14 day) was 58.6 IU/L and the BUN ([…], time 14 day) was 15.4 mg/dL. It also gave a CRE ([…], time 14 day) of 0.2 mg/dL, a Ca ([…], time 14 day) of 11 mg/dL and a Cl ([…], time 14 day) of 104.6 meq/L. It also gave a DBIL ([…], time 14 day) of 0.022 mg/dL, a GLC ([…], time 14 day) of 172.2 mg/dL and an IP ([…], time 14 day) of 6.3 mg/dL. The K ([…], time 14 day) was 3.9 meq/L, the LDH ([…], time 14 day) was 79.4 IU/L and the Na ([…], time 14 day) was 143.2 meq/L. The PL ([…], time 14 day) was 147 mg/dL, the RALB ([…], time 14 day) was 2.7 g/dL and the TBIL ([…], time 14 day) was 0.052 mg/dL. The TC ([…], time 14 day) was 76.6 mg/dL, the TG ([…], time 14 day) was 133.4 mg/dL and the TP ([…], time 14 day) was 6.2 g/dL. It also gave a gamma-GTP ([…], time 14 day) of 1 IU/L, an A/G ([…], time 28 day) of 0.7 and an ALP ([…], time 28 day) of 1089.4 IU/L. The ALT ([…], time 28 day) was 34.4 IU/L, the AST ([…], time 28 day) was 56.6 IU/L and the BUN ([…], time 28 day) was 15.2 mg/dL. The CRE ([…], time 28 day) was 0.2 mg/dL, the Ca ([…], time 28 day) was 10.9 mg/dL and the Cl ([…], time 28 day) was 105.2 meq/L. The DBIL ([…], time 28 day) was 0.02 mg/dL, the GLC ([…], time 28 day) was 176.4 mg/dL and the IP ([…], time 28 day) was 5.9 mg/dL. It also gave a K ([…], time 28 day) of 3.7 meq/L, an LDH ([…], time 28 day) of 67.6 IU/L and a Na ([…], time 28 day) of 144.4 meq/L. The PL ([…], time 28 day) was 141.2 mg/dL, the RALB ([…], time 28 day) was 2.7 g/dL and the TBIL ([…], time 28 day) was 0.058 mg/dL. It also gave a TC ([…], time 28 day) of 67.8 mg/dL, a TG ([…], time 28 day) of 168.2 mg/dL and a TP ([…], time 28 day) of 6.4 g/dL. It also gave a gamma-GTP ([…], time 28 day) of 1 IU/L.

From ChEMBL document CHEMBL3885861, “Open TG-GATES”
